Results as given in BindingDB's records for aid1799744 (Csar, 2012).

target: Mitogen-activated protein kinase 1 (Homo sapiens, UniProt P28482); experiment: Assay 1
Sequence (P28482 whole entry): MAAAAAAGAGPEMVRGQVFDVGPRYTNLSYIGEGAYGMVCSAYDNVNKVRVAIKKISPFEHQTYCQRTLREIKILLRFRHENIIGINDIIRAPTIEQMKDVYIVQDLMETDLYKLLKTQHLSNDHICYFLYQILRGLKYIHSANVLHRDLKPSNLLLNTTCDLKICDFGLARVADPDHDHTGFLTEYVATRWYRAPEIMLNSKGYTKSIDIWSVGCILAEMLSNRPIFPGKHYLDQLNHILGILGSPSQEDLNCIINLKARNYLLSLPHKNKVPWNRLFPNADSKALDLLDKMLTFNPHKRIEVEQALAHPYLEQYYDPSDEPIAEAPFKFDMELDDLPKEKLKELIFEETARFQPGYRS

SMILES	Ki
Nc1nccc(-c2c[nH]c(C(=O)N(CCO)Cc3ccccc3)c2)n1 [erk000543]	2000 nM
CC[C@@H](COC(=O)[C@@H](N)C(C)C)Nc1ncc(C)c(-c2c[nH]c(C(=O)N[C@H](COC(=O)[C@@H](N)C(C)C)c3cccc(Cl)c3)c2)n1 [erk000685]	759 nM
CC[C@@H](CO)Nc1ncc(C)c(-c2c[nH]c(C(=O)N[C@H](COP(=O)(O)O)c3cccc(Cl)c3)c2)n1 [erk000721]	4 nM
CC[C@@H](CO)Nc1ncc(C)c(-c2cc(C(=O)N[C@H](CO)c3cccc(Cl)c3)n(CC)c2)n1 [erk000678]	4 nM
CNc1ncc(C)c(-c2c[nH]c(C(=O)NCc3ccc(F)c(Cl)c3)c2)n1 [erk000393]	282 nM
CNc1ncc(C)c(-c2c[nH]c(C(=O)NCc3ccc(Cl)cc3Cl)c2)n1 [erk000054]	2000 nM
CCOC(=O)CNCc1ccc(-c2c[nH]nc2-c2c[nH]c(C(=O)N[C@H](CO)c3ccc(F)c(Cl)c3)c2)cc1Cl [erk000391]	18 nM
CCNc1ncc(C)c(-c2c[nH]c(C(=O)NCc3ccccc3OC)c2)n1 [erk000475]	468 nM
CC[C@@H](COC(C)=O)Nc1ncc(C)c(-c2c[nH]c(C(=O)N[C@H](COC(C)=O)c3cccc(Cl)c3)c2)n1 [erk000620]	229 nM
Cc1ccc(Nc2ncc(C)c(-c3c[nH]c(C(=O)NCc4cccc(C(F)(F)F)c4)c3)n2)cc1C [erk000440]	28 nM
O=c1[nH][nH]c2cc(Nc3ccc([N+](=O)[O-])c(Nc4cc(C5CC5)[nH]n4)n3)ccc12 [erk000662]	10 nM
Cc1cnc(N[C@@H](CO)CC(F)(F)F)nc1-c1c[nH]c(C(=O)N[C@H](CO)c2cccc(Cl)c2)c1 [erk000675]	8 nM
CC[C@@H](CO)Nc1ncc(F)c(-c2c[nH]c(C(=O)N[C@H](CO)c3cccc(Cl)c3)c2)n1 [erk000697]	3 nM

Next, values leading:

Ki	SMILES
9 nM	Cc1cccc([C@@H](CO)NC(=O)c2cc(-c3nc(Nc4ccccn4)ncc3C)c[nH]2)c1 [erk000603]
12900 nM	CCNc1ncc(C)c(-c2c[nH]c(C(=O)N[C@@H](CO)c3ccccc3)c2)n1 [erk000048]
9 nM	Cc1cnc(Nn2cccc2)nc1-c1c[nH]c(C(=O)N[C@H](CO)c2ccccc2)c1 [erk000573]
26 nM	Cc1cnc(NN(C)C)nc1-c1c[nH]c(C(=O)N[C@H](CO)c2cccc(Cl)c2)c1 [erk000648]
2 nM	COc1cccc(Nc2ncc(C)c(-c3c[nH]c(C(=O)N[C@H](CO)c4ccccc4)c3)n2)c1OC [erk000616]
15 nM	Cc1cnc(N)nc1-c1c[nH]c(C(=O)N[C@H](CO)c2cccc(Cl)c2)c1 [erk000691]
2340 nM	Cc1cnc(NO)nc1-c1c[nH]c(C(=O)N[C@H](CO)c2ccccc2)c1 [erk000656]
3 nM	Cc1ccc(Nc2ncc(C)c(-c3c[nH]c(C(=O)N[C@H](CO)c4ccccc4)c3)n2)cc1Br [erk000563]
6 nM	Cc1cnc(NC2CCC2)nc1-c1c[nH]c(C(=O)N[C@H](CO)c2ccccc2)c1 [erk000540]
17 nM	Cc1cnc(N[C@H]2CCC[C@H]2OCc2ccccc2)nc1-c1c[nH]c(C(=O)N[C@H](CO)c2cccc(Cl)c2)c1 [erk000608]
8 nM	Cc1cnc(Nc2cccc3c2OC(F)(F)O3)nc1-c1c[nH]c(C(=O)N[C@H](CO)c2ccccc2)c1 [erk000591]
37 nM	Cc1cnc(NC[C@H](C)O)nc1-c1c[nH]c(C(=O)N[C@H](CO)c2ccccc2)c1 [erk000464]
3 nM	Cc1cc(C)cc(Nc2ncc(C)c(-c3c[nH]c(C(=O)N[C@H](CO)c4ccccc4)c3)n2)c1 [erk000566]
83 nM	O=C(N[C@H](CO)c1ccccc1)c1cc(-c2n[nH]cc2-c2cccc(C(F)(F)F)c2)c[nH]1 [erk000184]
51 nM	Cc1cnc(NC2(CO)CCCC2)nc1-c1c[nH]c(C(=O)N[C@H](CO)c2ccccc2)c1 [erk000513]
4 nM	CCONc1ncc(Cl)c(-c2c[nH]c(C(=O)N[C@H](CO)c3cccc(C)c3)c2)n1 [erk000705]
17 nM	Cc1cnc(NCCO)nc1-c1c[nH]c(C(=O)N[C@H](CO)c2ccccc2)c1 [erk000461]
